Like-named read-outs stand apart in the source and are kept apart here.
Legend:
MALT1 = target: T1, MALT1 (Homo sapiens, UniProt Q9UDY8); assay: EC50 determination for MALT1 inhibition (Trypan blue dye-exclusion in cell lines); format: cell-based
T1 construct: endogenous in cells
T1 sequence (Q9UDY8 1-824): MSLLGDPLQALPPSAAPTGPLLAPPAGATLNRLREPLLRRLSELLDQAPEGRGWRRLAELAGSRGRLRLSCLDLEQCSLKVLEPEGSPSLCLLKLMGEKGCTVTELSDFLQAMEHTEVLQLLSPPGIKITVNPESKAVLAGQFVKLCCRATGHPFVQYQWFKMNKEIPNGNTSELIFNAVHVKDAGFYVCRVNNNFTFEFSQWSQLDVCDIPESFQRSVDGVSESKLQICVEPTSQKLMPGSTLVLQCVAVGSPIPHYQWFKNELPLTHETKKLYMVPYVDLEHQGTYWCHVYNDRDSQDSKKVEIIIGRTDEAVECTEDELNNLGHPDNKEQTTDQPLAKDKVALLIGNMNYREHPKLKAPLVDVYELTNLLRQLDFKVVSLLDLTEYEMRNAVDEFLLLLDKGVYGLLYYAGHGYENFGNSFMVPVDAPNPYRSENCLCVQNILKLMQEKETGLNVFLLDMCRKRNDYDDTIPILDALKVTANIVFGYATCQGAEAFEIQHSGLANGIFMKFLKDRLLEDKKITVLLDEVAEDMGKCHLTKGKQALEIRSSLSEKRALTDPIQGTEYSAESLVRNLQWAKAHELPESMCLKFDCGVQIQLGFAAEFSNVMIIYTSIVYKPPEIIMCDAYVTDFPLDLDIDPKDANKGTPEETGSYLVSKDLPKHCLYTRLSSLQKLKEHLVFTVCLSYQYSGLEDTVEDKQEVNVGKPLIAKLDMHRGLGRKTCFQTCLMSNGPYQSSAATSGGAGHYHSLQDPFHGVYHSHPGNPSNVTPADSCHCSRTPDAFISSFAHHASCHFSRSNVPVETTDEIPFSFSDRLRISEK
Excerpt: The term is quite general, regardless of whether a test-compound enhances or diminishes the biological parameter in question. Its equation is a modified version of the IC50 equation, taking the ratio of the response (R) to the maximum response (Rmax): {R/Rmax} = {1/ [1+(E50/I)n]}. […] However, some test-compounds achieve only partial attenuation of a biological activity, even at high concentrations. In this case, IC50 values may be misleading about potency.
Cell lines were in log phase of growth, harvested and seeded in a 96-well plate at optimum plating density. Next, cells were incubated with and without test-compounds (0.1 µM - 1 µM - 10 µM) in the presence of positive, negative and untreated controls.

[1] = test system: Glioblastoma multiforme (GBM) cell growth (U3024, U87MG); assay: Antiproliferative effect on GBM cell growth, 3D cell cultures; format: cell-based, human; conditions: tested at 0.1 µM, 1 µM, and 10 µM at t=48h, 3D cultures
Excerpt: To measure the MALT1-dependent antiproliferative effect of sitagliptin on GMB cell growth and at the same time account for biases, U3024, an established and characterized GBM cell line derived from GBM patient surgical samples was chosen (https://www.hgcc.se/). U3024 is of mesenchymal subtype (person) and is characterized by MALT1 overexpression. Cell lines were maintained in serum-free neural stem cell media to retain tumour-initiating capacity as well as tumour specific phenotypes (Pollard et al, 2009). The U87MG glioma cell line served as a bona fide human glioblastoma cell line. Cell cultures were performed in 3D. […] Cell lines were in log phase of growth, harvested and seeded in a 96-well plate at optimum plating density. […] DMSO was <0.05%. […] The results are mean ± standard deviation of three independent experiments done in triplicates. […] Three independent experiments were performed in triplicates.

[2] = test system: patient-derived glioblastoma cells (U3024); assay: Spheroid disintegration in patient-derived glioblastoma cells over-expressing MALT1; format: cell-based, human; conditions: 10 µM; U3024 spheroids compared to untreated spheroids
Excerpt: To measure the MALT1-dependent antiproliferative effect of sitagliptin on GMB cell growth and at the same time account for biases, U3024, an established and characterized GBM cell line derived from GBM patient surgical samples was chosen (https://www.hgcc.se/). U3024 is of mesenchymal subtype (person) and is characterized by MALT1 overexpression. Cell lines were maintained in serum-free neural stem cell media to retain tumour-initiating capacity as well as tumour specific phenotypes (Pollard et al, 2009). The U87MG glioma cell line served as a bona fide human glioblastoma cell line. Cell cultures were performed in 3D. […] Cell lines were in log phase of growth, harvested and seeded in a 96-well plate at optimum plating density. […] DMSO was <0.05%.

[3] = target: T2, recombinant full-length human MALT1 (Homo sapiens, UniProt Q9UDY8); assay: Fluorogenic MALT1 proteolytic activity assay with Ac-LRSR-AMC substrate; format: biochemical; conditions: read-out: percent inhibition of MALT1 proteolytic activity
T2 construct: recombinant full-length human MALT1
T2 sequence (Q9UDY8 1-824): T1 sequence (Q9UDY8 1-824)
Procedure: Fluorogenic reactions were monitored in the presence of recombinant full-length human MALT1 and Ac-LRSR-AMC (Ac-Leu-Arg-Ser-Arg-7-amino-4-methylcoumarin) - SEQ ID NO:1 - with excitation/emission wavelengths of 360/460 nm in black, low binding microtiter plates using a microplate reader. Cleavage of the Ac-LRSR-AMC substrate by MALT1 results in the release of AMC and a fluorescent signal. […] The final percent inhibition was calculated with the formula: {[fluorescence_test compound(T2-T1) - fluorescence_negative control (T2-T1)]/ [fluorescence_positive control (T2-T1) - fluorescence_negative control (T2-T1)]} × 100. […] A so-called buffer only test-condition (i.e. MALT1+Ac-LRSR-AMC substrate+buffer) served as negative control. […] MI-2 (C19H17Cl3N4O3; 2-chloro-N-[4-[5-(3,4-dichlorophenyl)-3-(2-methoxyethoxy)-1,2,4-triazol-1-yl] phenyl] acetamide) is an orthosteric and irreversible MALT1 inhibitor (Fontán et al, 2012).

CYP1A2 = CYP1A2 (Homo sapiens, UniProt P05177); assay: CYP450 inhibition/induction, baculosomes, fluorescent substrate, kinetic model; format: in vitro ADME; conditions: 1 µM; 20°C; t = 60 min
Procedure: (§1) To determine the isozyme-specific CYP450-metabolism, baculosomes® expressing CYP1A2, CYP2A6, CYP2B6, CYP2C9, CYP2C19, CYP2D6 and CYP3A4 human CYP450 isoenzymes were purchased from Thermo Fisher Scientific (Waltham, MA, USA). All reagents were handled and prepared according to the manufacturer's protocol. Sitagliptin was tested at 1 µM. Enzymatic activity in the presence of sitagliptin was assessed based on the kinetic model for CYP1A2, CYP2A6, CYP2B6, CYP2C9, CYP2C19, CYP2D6 and CYP3A4 isoforms. Reactions took place in triplicates at 20°C. Glucose-6-phosphate at 333 mM and glucose-6-phosphate-dehydrogenase at 30 U/mL in 100 mM potassium phosphate, pH 8.0 (regeneration system) converted NADP+ (10 mM in 100 mM potassium phosphate, pH 8.0) into NADPH to initiate the CYP450 reaction. Upon the addition of the fluorescent substrate, immediately (<2 min), the fluorescence signal was monitored over time at suitable excitation and emission wavelengths by Lionheart FX (BioTek, Winooski, VT, USA). CYP450 inhibition (%) was determined based on the reaction rates (fluorescence intensity changes per unit time).

CYP2A6 = target: T3, CYP2A6 (Homo sapiens, UniProt P11509); assay: as above; format: in vitro ADME; conditions: 1 µM; 20°C; t = 60 min
T3 construct: purchased Thermo Fisher Scientific (Waltham, MA, USA); host or cells: baculosomes
T3 sequence (P11509 1-494): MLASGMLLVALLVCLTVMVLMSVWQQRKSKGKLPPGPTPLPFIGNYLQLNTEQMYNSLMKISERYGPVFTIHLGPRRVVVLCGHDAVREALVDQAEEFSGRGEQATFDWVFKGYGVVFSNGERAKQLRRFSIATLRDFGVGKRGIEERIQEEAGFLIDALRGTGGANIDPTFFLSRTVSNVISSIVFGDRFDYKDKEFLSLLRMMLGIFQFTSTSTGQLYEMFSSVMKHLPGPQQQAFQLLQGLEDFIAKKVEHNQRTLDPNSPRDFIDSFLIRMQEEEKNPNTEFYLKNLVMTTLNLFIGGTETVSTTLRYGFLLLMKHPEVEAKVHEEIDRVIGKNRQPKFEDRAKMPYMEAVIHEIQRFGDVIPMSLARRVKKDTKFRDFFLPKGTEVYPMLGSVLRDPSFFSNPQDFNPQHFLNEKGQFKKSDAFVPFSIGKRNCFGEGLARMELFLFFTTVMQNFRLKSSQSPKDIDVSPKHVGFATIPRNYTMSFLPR
Procedure: as §1

CYP2B6 = target: T4, CYP2B6 (Homo sapiens, UniProt P20813); assay: as above; format: in vitro ADME; conditions: 1 µM; 20°C; t = 60 min
T4 construct: purchased Thermo Fisher Scientific (Waltham, MA, USA); host or cells: baculosomes
T4 sequence (P20813 1-491): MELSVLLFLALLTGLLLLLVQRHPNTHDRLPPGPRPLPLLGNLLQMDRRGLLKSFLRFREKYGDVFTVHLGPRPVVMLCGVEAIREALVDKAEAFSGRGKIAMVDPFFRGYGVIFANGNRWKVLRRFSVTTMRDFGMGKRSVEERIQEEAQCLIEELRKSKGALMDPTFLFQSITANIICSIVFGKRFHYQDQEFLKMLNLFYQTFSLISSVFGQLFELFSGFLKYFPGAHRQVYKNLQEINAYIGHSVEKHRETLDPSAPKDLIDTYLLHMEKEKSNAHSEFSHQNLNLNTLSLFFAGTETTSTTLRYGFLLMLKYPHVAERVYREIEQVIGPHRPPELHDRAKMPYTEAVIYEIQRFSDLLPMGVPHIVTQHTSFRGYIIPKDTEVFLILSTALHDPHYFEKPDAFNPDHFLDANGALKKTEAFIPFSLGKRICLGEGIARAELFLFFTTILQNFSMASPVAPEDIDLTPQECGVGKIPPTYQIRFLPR
Procedure: as §1

CYP2C19 = target: T5, CYP2C19 (Homo sapiens, UniProt P33261); assay: as above; format: in vitro ADME; conditions: 1 µM; 20°C; t = 60 min
T5 construct: purchased Thermo Fisher Scientific (Waltham, MA, USA); host or cells: baculosomes
Procedure: as §1

CYP2C9 = target: T6, CYP2C9 (Homo sapiens, UniProt P11712); assay: as above; format: in vitro ADME; conditions: 1 µM; 20°C; t = 60 min
T6 construct: purchased Thermo Fisher Scientific (Waltham, MA, USA); host or cells: baculosomes
Procedure: as §1

CYP2D6 = target: T7, CYP2D6 (Homo sapiens, UniProt P10635); assay: as above; format: in vitro ADME; conditions: 1 µM; 20°C; t = 60 min
T7 construct: purchased Thermo Fisher Scientific (Waltham, MA, USA); host or cells: baculosomes
Procedure: as §1

CYP3A4 = target: T8, CYP3A4 (Homo sapiens, UniProt P08684); assay: as above; format: in vitro ADME; conditions: 1 µM; 20°C; t = 60 min
T8 construct: purchased Thermo Fisher Scientific (Waltham, MA, USA); host or cells: baculosomes
Procedure: as §1

CYP1A2, sequence (P05177 whole entry, canonical isoform): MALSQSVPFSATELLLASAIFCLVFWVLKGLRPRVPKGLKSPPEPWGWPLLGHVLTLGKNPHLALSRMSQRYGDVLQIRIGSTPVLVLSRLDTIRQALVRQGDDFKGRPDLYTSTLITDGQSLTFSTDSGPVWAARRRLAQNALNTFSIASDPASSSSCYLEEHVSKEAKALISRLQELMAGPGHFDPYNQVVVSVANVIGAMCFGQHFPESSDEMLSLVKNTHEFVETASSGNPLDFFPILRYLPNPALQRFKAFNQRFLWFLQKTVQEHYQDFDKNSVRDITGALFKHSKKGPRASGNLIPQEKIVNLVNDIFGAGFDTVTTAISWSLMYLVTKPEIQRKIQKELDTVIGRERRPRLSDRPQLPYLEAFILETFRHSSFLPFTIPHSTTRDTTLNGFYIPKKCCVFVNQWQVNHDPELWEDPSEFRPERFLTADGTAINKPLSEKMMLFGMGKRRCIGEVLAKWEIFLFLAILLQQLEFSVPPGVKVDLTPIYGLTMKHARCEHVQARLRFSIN
T7 sequence (P10635 whole entry): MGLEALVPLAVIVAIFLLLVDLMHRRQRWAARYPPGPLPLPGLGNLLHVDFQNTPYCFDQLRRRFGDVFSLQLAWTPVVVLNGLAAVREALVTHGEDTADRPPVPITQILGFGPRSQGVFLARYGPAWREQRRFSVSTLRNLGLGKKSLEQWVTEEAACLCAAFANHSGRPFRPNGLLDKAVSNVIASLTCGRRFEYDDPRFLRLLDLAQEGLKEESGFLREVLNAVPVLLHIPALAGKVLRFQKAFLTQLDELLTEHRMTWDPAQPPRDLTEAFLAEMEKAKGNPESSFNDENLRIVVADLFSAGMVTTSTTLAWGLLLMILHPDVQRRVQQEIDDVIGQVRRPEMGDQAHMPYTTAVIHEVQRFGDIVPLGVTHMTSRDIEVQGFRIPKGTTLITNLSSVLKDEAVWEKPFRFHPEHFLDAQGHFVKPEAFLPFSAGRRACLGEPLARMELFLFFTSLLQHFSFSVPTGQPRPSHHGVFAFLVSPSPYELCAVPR
T6 sequence (P11712 whole entry): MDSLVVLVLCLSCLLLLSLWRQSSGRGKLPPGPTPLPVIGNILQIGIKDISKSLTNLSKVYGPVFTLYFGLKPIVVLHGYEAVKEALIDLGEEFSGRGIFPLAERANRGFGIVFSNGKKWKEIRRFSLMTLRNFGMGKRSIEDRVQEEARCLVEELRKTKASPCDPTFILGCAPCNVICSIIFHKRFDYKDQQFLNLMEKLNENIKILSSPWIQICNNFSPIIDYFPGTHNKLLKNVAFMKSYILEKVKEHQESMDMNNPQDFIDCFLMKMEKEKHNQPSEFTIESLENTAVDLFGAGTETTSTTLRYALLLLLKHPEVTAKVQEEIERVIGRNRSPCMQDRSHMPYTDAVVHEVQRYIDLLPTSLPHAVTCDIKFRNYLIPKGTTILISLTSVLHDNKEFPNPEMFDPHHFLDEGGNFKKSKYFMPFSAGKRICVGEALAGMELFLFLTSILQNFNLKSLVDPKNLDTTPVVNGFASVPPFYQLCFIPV
T5 sequence (P33261 whole entry): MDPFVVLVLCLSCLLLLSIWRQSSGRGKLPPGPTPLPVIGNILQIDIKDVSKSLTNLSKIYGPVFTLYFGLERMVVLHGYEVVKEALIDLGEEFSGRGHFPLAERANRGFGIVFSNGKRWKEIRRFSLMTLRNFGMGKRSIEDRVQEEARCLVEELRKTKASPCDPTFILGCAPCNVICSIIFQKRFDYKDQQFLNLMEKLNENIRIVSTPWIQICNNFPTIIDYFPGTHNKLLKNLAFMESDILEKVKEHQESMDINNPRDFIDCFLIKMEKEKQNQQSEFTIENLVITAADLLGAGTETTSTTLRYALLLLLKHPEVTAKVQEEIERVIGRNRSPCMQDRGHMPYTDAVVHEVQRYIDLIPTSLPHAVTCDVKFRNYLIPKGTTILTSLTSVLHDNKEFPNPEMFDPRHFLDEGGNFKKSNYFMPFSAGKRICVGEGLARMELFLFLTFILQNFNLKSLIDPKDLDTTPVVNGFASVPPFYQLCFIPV
T8 sequence (P08684 whole entry): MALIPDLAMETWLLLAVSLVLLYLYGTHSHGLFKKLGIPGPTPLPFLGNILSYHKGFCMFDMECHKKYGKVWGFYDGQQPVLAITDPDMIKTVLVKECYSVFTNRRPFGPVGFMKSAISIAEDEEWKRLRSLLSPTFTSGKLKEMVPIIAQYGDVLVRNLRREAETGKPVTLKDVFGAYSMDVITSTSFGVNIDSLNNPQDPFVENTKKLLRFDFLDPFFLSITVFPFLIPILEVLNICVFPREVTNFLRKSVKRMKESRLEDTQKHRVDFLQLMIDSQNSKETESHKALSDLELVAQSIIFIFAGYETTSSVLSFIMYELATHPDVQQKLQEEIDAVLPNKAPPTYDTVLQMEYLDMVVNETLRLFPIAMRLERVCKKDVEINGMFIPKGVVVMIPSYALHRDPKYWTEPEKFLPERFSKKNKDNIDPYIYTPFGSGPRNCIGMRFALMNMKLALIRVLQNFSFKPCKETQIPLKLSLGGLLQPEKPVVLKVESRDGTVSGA

inhibition at 10 µM [3]	EC50 (MALT1; 0.1 µM - 1 µM - 10 µM, Trypan blue dye-exclusion at t=48h, mean of three independent experiments in triplicates, read-out: EC50 values)	CYP1A2 inhibition / induction (CYP1A2)	CYP2A6 inhibition / induction (CYP2A6)	CYP2B6 inhibition / induction (CYP2B6)	CYP2C19 inhibition / induction (CYP2C19)	CYP2C9 inhibition / induction (CYP2C9)	CYP2D6 inhibition / induction (CYP2D6)	CYP3A4 inhibition / induction (CYP3A4)	SMILES	EC50 (MALT1)	antiproliferative effect on GBM cell growth [1]	inhibition of MALT1 resulting in spheroid disintegration [2]
–	–	–	–	–	–	–	–	–	COCCOc1nc(-c2ccc(Cl)c(Cl)c2)n(-c2ccc(NC(=O)CCl)cc2)n1 [MI-2, 2-chloro-N-[4-[5-(3,4-dichlorophenyl)-3-(2-methoxyethoxy)-1,2,4-triazol-1-yl]phenyl] acetamide]	1 µM	–	–
≥ 40%	1.3 µM	does not inhibit nor induces	does not inhibit nor induces	does not inhibit nor induces	does not inhibit nor induces	does not inhibit nor induces	does not inhibit nor induces	does not inhibit nor induces	N[C@@H](CC(=O)N1CCn2c(nnc2C(F)(F)F)C1)Cc1cc(F)c(F)cc1F [Sitagliptin, (3R)-3-amino-1-[3-(trifluoromethyl)-6,8-dihydro-5H-[1,2,4]triazolo[4,3-a]pyrazin-7-yl]-4-(2,4,5-trifluorophenyl)butan-1-one]	–	strong antiproliferative effect	spheroid disintegration
